Laboratory results taken from US11998610B2, “Conjugates and methods of using the same” (Flagship Pioneering Innovations V, Inc., priority 2018, dated 2024).
Non-standard residues stand in square brackets, D forms with d. Residues, ends and D or L forms follow the SMILES beside them. *: point of attachment. Octanoyl = CCCCCCCC(=O)*; Bz = O=C(c1ccccc1)*

What was measured:
[1] = tested on: CT26.CL25 cells; assay: Cell viability readout (CellTiter-Glo) with bacteria-free media; assay type: cell-based, mouse; conditions: 72 h
Method: Example 100: Cell-Based Assay of Bacterial Enzymes with Mammalian CT26.CL25 Mouse Colorectal Carcinoma Viability Readout
Bacteria-free media was incubated with the indicated test compound. ((R)—N1-(2-(methylamino)ethyl)-2-octanamidosuccinamide, a recognition element-linker conjugate lacking a payload, was serially diluted 1:1000 in DMSO and […] in medium+10% FBS to give a final concentration of 10 nM. Compound 35, Compound 76, Compound 77, Compound 78, Compound 79, and SN-38 were serially diluted 1:1000 in DMSO and 1:1000 in medium to give a final concentration of 10 nM, and then the bacteria-free supernatants were tested for their ability to kill mammalian cells. As an additional control, the test compound will also be incubated with bacteria-free media. The above steps can also be performed in the presence of E. coli (CFT073 ATCC 700928, Nissle 1917, or BL21 (DE3)) to effect cleavage of the conjugates of the application.
On Day 1, CT26.CL25 cells (15,000 cells/well) were seeded in triplicate into a 24 well plate and incubated overnight in 100 μL of complete medium. The reactions (bacteria or media blank) was pelleted by centrifugation, and then the supernatant was passed through a 0.2 μm sterile filter to remove residual bacteria.
On Day 2, 300 μL of a 10 nM solution of each compound in media were applied to separate wells of CT26.CL25 cells as prepared on Day 1. The cells were incubated at 37° C. for 72 h. After this point, viability was assessed using a CellTiter-Glo kit.
Binning of the compounds was achieved by measuring cell growth or arrest (e.g. remaining cells are >90% viable, >80% viable, >70% viable, >60% viable, >50% viable, >40% viable, >30% viable, >20% viable, or >10% viable).

[2] = tested on: E. coli CFT073 ATCC 700928 and/or E. coli Nissle 1917; assay: Cell-based assay with ClbP with LCMS, ClbP positive strain; conditions: for % Remaining in ClbP Positve Relative to Media-Only: ClbP-encoding E. coli, 10 μM compound, 37° C., 20 h
Summary of the method: (§1)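 Compound (10 μM final) incubated 20 h at 37° C, aerobically, with 1:40-diluted overnight cultures of ClbP-positive E. coli or negative BL21(DE3), in duplicate, alongside uninoculated LB. Remaining parent quantified by LC-MS/MS (MRM) after acetonitrile quench, expressed as percent of media-alone.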

[3] = tested on: E. coli BL21(DE3); assay: Cell-based assay with ClbP with LCMS, ClbP negative strain; conditions: 10 μM compound, 37° C., 20 h
Summary of the method: as §1

[4] = In vitro Colonic Material Stability Assay; assay type: in vitro ADME; conditions: for Assay 3 (% Remaining at 24 h): colonic material slurry, anaerobic, 1 or 10 μM
Summary of the method: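 Compounds were added at 1 or 10 μM final to colonic material slurry (6.7 μL of 15% w/v slurry per 1 mL YCFAC or similar medium). Samples taken at 0–2880 min were acetonitrile-quenched and the remaining compound quantified by LC/MS.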

[5] = tested on: WT ClbP; assay: Assay with purified ClbP protein (LCMS); assay type: biochemical, E. coli; conditions: 20 μM WT ClbP, room temperature, 24 h
Method: This example is representative of the method described in Example 91 the soluble peptidase domain (amino acids 38 to 375) of ClbP or the catalytically inert mutant S95A was cloned into pET28a using previously defined boundaries as a starting point (Brotherton, J. Am. Chem. Soc., 135:3359-3362, 2013).
WT ClbP or S95A ClbP was isolated as an N-terminally tagged HiS6-SUMO1-fusion protein from […] using E. coli BL21(DE3)RIPL to express the protein. The cells were lysed in 30 mM Tris pH 8.0, 300 mM NaCl, 10% (v/v) glycerol, benzonase (Sigma-Millipore), lysozyme, B-per (ThermoFisher), and Y-per (ThermoFisher). The lysate was clarified via centrifugation (13,000 g, 20 min), and the supernatant was incubated with HiBond Ni-NTA agarose (5 mL). The resin was subsequently washed with wash buffer (30 mM Tris pH 7.5, 250 mM NaCl, 10 mM imidazole, 3% (v/v) glycerol, and 2 mM TCEP). The resin was incubated at 30° C. for 1 h with 1.4 mg ULP1 protease. The resin was then washed with an additional fraction of wash buffer. Centrifuge filtration was used to concentrate the protein, and the concentrated protein was subsequently applied to a 16/600 Superdex 200 size exclusion column with an isocratic elution of 25 mM HEPES, 25 mM Tris pH 7.4, 325 mM NaCl, 10 mM KCl and 3% (v/v) glycerol at a flow rate of […]. The fractions containing the protein were determined by SDS-PAGE, combined, and concentrated by centrifuge filtration. 3 mM TCEP was added to the concentrated protein, which was then aliquoted, flash frozen in liquid N2, and stored at −80° C.
This example is representative of the method described in Example D, ClbP was incubated with test compounds in an in vitro assay. In a typical assay, 0, 1, or 20 μM purified WT or S95A ClbP was incubated with 100 or 500 μM compound in reaction buffer (50 mM Tris-HCl pH 7.5, 37.5 mM NaCl) at room temperature for 24 h. The total volume of this reaction was 150 μL.
After 24 h, 2 volumes of acetonitrile (300 μL) were added to the reaction to quench the solution.
The reaction was centrifuged (4,000 g, 15 min), and then the supernatant was analyzed by LCMS. 5 μL of the supernatant was injected onto an Acquity UPLC BEH C18 1.7 μm 2.1×100 column. Buffer A was 0.1% (v/v) formic acid in water and buffer B was 0.1% (v/v) formic acid in acetonitrile. The flow rate was 0.5 mL/min. The initial % B was 10, which was held for 30 s then ramped up to 90% B over 3 min, held at 90% B for 1 min, ramped down to 10% B over 15 s, and then held at 10% B for 15 s. The UV-Vis spectrum from 210-400 nm was monitored with 3.6 nm resolution. Positive and negative mode ESI were monitored from 100-1000 m/z with a 20 V cone voltage at 5 Hz sampling frequency in centroid collection.
The relative starting material remaining in the WT ClbP reaction was determined by LCMS and then compared to the residual starting material in the no-enzyme and catalytically inert enzyme (S95A ClbP) reactions. In an ideal case, the amount of residual starting material in the WT ClbP reaction was <25% of the amount in the S95A ClbP and no-enzyme conditions. In an acceptable case, the amount of residual starting material in the WT ClbP reaction was 25-75% of the amount in the S95A ClbP and no-enzyme conditions. In a non-preferred case, the amount of residual starting material in the WT ClbP reaction was >75% of the amount in the S95A ClbP and no-enzyme conditions.
Formation of the anticipated product was likewise quantified by LCMS analysis and confirmed by coelution with an external product standard. In an ideal case, the amount of product formed in the WT ClbP reaction corresponded to >75% of the theoretical maximum. In an acceptable case, the amount of product formed in the WT ClbP reaction corresponded to 25-75% of the theoretical maximum. In a non-preferred case, the amount of product formed in the WT ClbP reaction corresponded to <25% of the theoretical maximum.

[6] = Stability of conjugates in Simulated Gastric Fluid (SGF); assay type: in vitro ADME; conditions: simulated gastric fluid pH 1.6 with pepsin, 1 μM, 37° C.
Method: Assay 1. Stability of conjugates in Simulated Gastric Fluid (SGF). This assay was used to assess the stability of a conjugate in a stomach. Medium was prepared by dissolving 2 g of sodium chloride in 0.6 L in ultrapure water (MilliQ®, Millipore Sigma, Darmstadt, Germany). The pH was adjusted to 1.6 with 1N hydrochloric acid, and the volume was then adjusted to 1 L with purified water. 60 mg FaSSIF powder (Biorelevant™, London, UK) were dissolved in 500 mL buffer (above). Pepsin was added (0.1 mg/mL) (Millipore Sigma, Darmstadt, Germany), and the solution was stirred. The resulting SGF media were used fresh for each experiment. Test compounds were dissolved in DMSO stock to 1 mM. An aliquot of the DMSO stock solution was removed and diluted in the SGF Media in 15 mL falcon tubes to generate a total compound concentration of 1 μM. A 1 mL aliquot was immediately removed and diluted once with 1 volume of acetonitrile for T0 timepoint. The mixture was sealed and mixed at 37° C. in an incubator. Aliquots (1 mL) were removed at regular intervals and immediately quenched by the addition of 1 volume of acetonitrile. The resulting samples were analyzed by LC/MS to determine degradation rates in SGF.

[7] = Stability of conjugates in Simulated Intestinal Fluid (SIF); assay type: in vitro ADME; conditions: simulated intestinal fluid pH 6.7 with pancreatin, 1 μM, 37° C.
Method: Assay 2. Stability of conjugates in Simulated Intestinal Fluid (SIF). This assay was used to assess the stability of a conjugate in a small intestine. Phosphate buffer was prepared by dissolving 0.42 g of sodium hydroxide pellets and 3.95 g of monobasic sodium phosphate monohydrate and 6.19 g of sodium chloride in ultrapure water (MilliQ®, Millipore Sigma, Darmstadt, Germany). The pH was adjusted to 6.7 using aq. HCl and aq. NaOH, as necessary, and the solution was diluted with ultrapure water to produce 1 L of the pH 6.7 buffer. 112 mg FaSSIF powder (Biorelevant™, London, UK) was dissolved in 50 mL of the pH 6.7 buffer. 2 to 3 mL of the resulting solution were then added to 500 mg pancreatin (Millipore Sigma, Darmstadt, Germany). The resulting mixture was agitated by finger tapping the vessel containing the mixture until milky suspension formed. At this time, the remainder of the 50 mL FaSSiF/pH 6.7 buffer solution was added. The resulting suspension was flipped upside down 10 times to produce SIF, which was used fresh. Test compounds were dissolved in DMSO stock to 1 mM. An aliquot of the DMSO stock solution was removed and diluted in the SIF media in 15 mL falcon tubes to produce a mixture with a tested compound concentration of 1 μM. A 1 mL aliquot was immediately removed and diluted once with 1 volume of acetonitrile for T0 timepoint. The mixture was sealed and agitated at 37° C. in an incubator. Aliquots (1 mL) were removed at regular intervals and immediately quenched by the addition of 1 volume of acetonitrile. The resulting samples were analyzed by LC/MS to determine degradation rates

Row | SMILES | % Remaining in ClbP Positve Relative to Media-Only [2] | % Remaining in ClbP Negative Relative to Media-Only [3] | Assay 3 (% Remaining at 24 h) [4] | also measured
1 | CCCCCCCC(=O)N[C@H](CC(N)=O)C(=O)NCCNC [(R)—N1-(2-(methylamino)ethyl)-2-octanamidosuccinamide, reference compound] |  |  |  | Bacteria-free media (Luminescence, average of three runs) ([1]; 0.01 µM): 278313
2 | CCCCCCCC(=O)N[C@H](CC(=O)O)C(=O)N[C@@H](C)C(=O)OC [Example 8, (R)-4-(((S)-1-methoxy-1-oxopropan-2-yl)amino)-3-octanamido-4-oxobutanoic acid] (Octanoyl-[dD]-Ala-OMe) | − (>75% compound remaining in the 20 μM WT ClbP reaction relative to the no-enzyme control) | + (between 25-75% compound remaining in the 20 μM WT ClbP reaction relative to the no-enzyme control) | B (25-75% of the tested compound remaining) | Status (compound remaining in WT ClbP reaction relative to no-enzyme control) ([5]; 500 μM compound): − (>75% compound remaining in the 20 μM WT ClbP reaction relative to the no-enzyme control)
3 | COC(=O)[C@H](C)NC(=O)[C@@H](CC(N)=O)NC(=O)c1ccccc1 [Example 13, Methyl benzoyl-D-asparaginyl-L-alaninate] (Bz-[dN]-Ala-OMe) | ++ (<25% compound remaining in the 20 μM WT ClbP reaction relative to the control) | + (between 25-75% compound remaining in the 20 μM WT ClbP reaction relative to the no-enzyme control) | C (>75% of the tested compound remaining) | Difference between the ClbP Positive and ClbP Negative release profiles ([2]; conclusion from Table 4): particularly favorable difference; Status (compound remaining in WT ClbP reaction relative to no-enzyme control) ([5]; 100 μM compound): ++ (<25% compound remaining in the 20 μM WT ClbP reaction relative to the control)
4 | CCCCCCCCCCCCCC(=O)N[C@H](CC(N)=O)C(=O)N[C@@H](C)CCC(=O)Oc1ccccc1 [Example 66, phenyl (S)-4-((R)-4-amino-4-oxo-2-tetradecanamidobutanamido)pentanoate] | + (between 25-75% compound remaining in the 20 μM WT ClbP reaction relative to the no-enzyme control) | ++ (<25% compound remaining in the 20 μM WT ClbP reaction relative to the control) | A (<25% of the tested compound remaining) | Assay 1 (SGF) (% Remaining @ 1 hours) [6]: C (>75% of the tested compound remaining); Selective delivery to the colon (conclusion from Table 2) ([4]; from SGF, SIF and colonic material stability): can be selectively delivered to the colon; Assay 2 (SIF) (% @ Remaining 4 hours) [7]: B (25-75% of the tested compound remaining)
5 | CCc1c2c(nc3ccc(O)cc13)-c1cc3c(c(=O)n1C2)COC(=O)[C@]3(O)CC [SN-38, 7-ethyl-10-hydroxy-camptothecin, reference compound] |  |  |  | Bacteria-free media (Luminescence, average of three runs) ([1]; 10 nM compound, CT26.CL25 cells, CellTiter-Glo): 121387
